Entries after “also recorded” stand apart in the source; their conditions may differ.
Experiments:
[1] = biological target: T1, Aβ40 (Homo sapiens, UniProt P05067); assay: Mass spectrometry and IM-MS of Aβ40-ligand complexes; assay type: binding
T1 construct: Aβ40 and Aβ42 were purchased from AnaSpec (Fremont, Calif., USA); purchased AnaSpec
Description: The resulting solutions were allowed to react for 0, 2, 4, 8, and 24 hours at a temperature of 37° C. The samples were directly injected into the mass spectrometer at a flow rate of […]. ESI interface was operated in positive-ion mode; spray voltage was set at 4.5 kV with capillary temperature at 300° C. and capillary exit voltage at 101 V. Mass spectra were taken in the range of m/z 50 to 500.
All ion mobility-mass spectrometry (IM-MS) experiments were carried out on a Synapt G2 (Waters, Milford, Mass., USA). Samples were ionized using a nano-electrospray source operated in positive ion mode. MS instrumentation was operated at a backing pressure of 2.7 mbar and a sample cone voltage of 40 V. Data were analyzed using MassLynx 4.1 and DriftScope 2.0 (Waters, Milford, Mass., USA). Collision cross-section (CCS) measurements were calibrated externally using a database of known protein, and protein complex CCS values in helium. Lyophilized Aβ40 peptides (AnaSpec, Fremont, Calif., USA) were prepared to a stock concentration of 25 μM in 1 mM ammonium acetate (pH 7.0). […] After the reaction, all samples were lyophilized overnight prior to re-suspension of the samples in hexafluoro-2-propanol (HFIP, Sigma-Aldrich, St Louis, Mo., USA)([Aβ40]=50 μM) and sonicated under pulse settings for 5 minutes. The samples were diluted 50%, to a final Aβ40 concentration of 25 μM, using 1 mM ammonium acetate (0.5 mM final concentration) immediately prior to mass analysis.

[2] = biological target: T1, Aβ40; assay: Isothermal titration calorimetry (ITC); assay type: binding
Description: The ligand solution (10 μL) was titrated into the Aβ40 solution (1.4 mL) at 25° C. over 1 second with 25 injections with a constant interval of […] a 250 μL syringe rotating at 310 rpm. In a control experiment, the identical titrant solution was injected into the same buffer used with Aβ40 to measure the heat of dilution.
A reasonable heat of binding value was calculated by subtracting the heat of dilution value from the overall heat change. Titration data were analyzed with the MicroCal Origin (v. 7.0). The values of Ka (association constant) and […] each ligand upon binding to Aβ40 was determined from a proper fitting model. The binding curves were best fit to a sequential binding model with three binding sites. The values of −TΔS and ΔG were calculated from the Gibb's free energy relationship [(ΔG=ΔH−TΔS; ΔG=−RT ln(Ka)].

[3] = Gross appearance and body weight of 5×FAD mice; assay type: in vivo, mouse; details: at conclusion of 30-day treatment, 1 mg/kg/day intraperitoneal
Excerpt: (§1) 5×FAD mice were selected for this study since they develop early and severe phenotypes of AD and behavioral dysfunction.

[4] = system: Aβ40; assay: Cerebral Aβ40 by ELISA in 5×FAD mice; assay type: in vivo, mouse; details: 1 mg/kg/day intraperitoneal, 30 days
Excerpt: as §1
(§2) Cerebral Aβ peptides were quantified by the enzyme-linked immunosorbent assay (ELISA).

[5] = system: Aβ40/Aβ42; assay: Inhibition of formation of Aβ aggregation (gel electrophoresis/Western blot, TEM); assay type: biochemical
Description: Aβ40 or Aβ42 was dissolved in ammonium hydroxide (NH4OH, 1% v/v aq), and then, aliquoted, lyophilized overnight, and stored at a temperature of −80° C. For experiments described herein, a stock solution of Aβ was prepared by dissolving lyophilized peptide in 1% NH4OH (10 μL) and diluted with deionized distilled water (ddH2O).
The concentration of Aβ peptides in the solution was determined by measuring the absorbance of the solution at 280 nm (E=1450 M^−1 cm^−1 for Aβ40; and ε=1490 M^−1 cm^−1 for Aβ42).
(§3) The peptide stock solution was diluted to a final concentration of 25 μM in Chelex-treated buffered solution containing [4-(2-hydroxyethyl)-1-piperazine ethane sulfonic acid; […]; pH 6.6 for Cu(II) samples; pH 7.4 for metal-free and Zn(II) samples] (HEPES) and NaCl ([…]).
(§4) The samples from studies on the inhibition of formation of Aβ aggregation and the breakdown of Aβ aggregation were analyzed by gel electrophoresis with Western blotting using an anti-Aβ antibody (6E10).
Each sample (10 μL) was separated on a 10-20% Tris-tricine gel (Invitrogen, Grand island, NY, USA), and the protein samples obtained therefrom were transferred onto a nitrocellulose membrane which was blocked with bovine serum albumin (BSA, 3% w/v, Sigma-Aldrich, St. Louis, Mo., USA) in Tris-buffered saline containing 0.1% Tween-20 (TBS-T; 1.00 mM Tris base, pH 8.0, 1.50 mM NaCl) at room temperature for 2 hours. […]

[6] = biological target: T2, Cu(II)-loaded Aβ42 fibrils (Homo sapiens, UniProt P05067); assay: Cu K-edge X-ray absorption spectroscopy; details: DMPD 2 equivalents, 24 hours, anaerobic
T2 construct: Aβ40 and Aβ42 were purchased from AnaSpec (Fremont, Calif., USA); purchased AnaSpec
Description: Aβ42 was monomerized according to the methods previously described (Biochemistry 44, 5478-5487, 2005; J. Am. Chem. Soc. 126, 13534-13538, 2004), and fibrils of Aβ42 were grown according to protocols known in the art (Biochemistry, 47, 5006-5016, 2008). Following monomerizatino of fibrillization, all samples were treated under an anaerobic atmosphere (N2) in a COY anaerobic chamber (COY Laboratory, Grass Lake, Mich., USA).
Aβ42 was dissolved in a mixture of 10 mM of N-ethylmorpholine buffer (pH 7.4) and glycerol (used as a deicing agent) that were mixed at a ratio of 4:1, and then, an equivalent amount of CuCl2 was added thereto. Aβ42 monomers were maintained at 5° C., and all procedures performed rapidly to avoid aggregation. […]
Following the reaction with DMPD, the solutions were injected into Lucite sample holders with Kapton tape windows, and then, quickly frozen in liquid nitrogen. All data were recorded on beamline X-3b at the National Synchrotron Light Source (Brookhaven National Laboratories, Upton, N.Y., USA). […]
Data were collected as fluorescence spectra using a Canberra 31 element Ge solid-state detector with a 3 micron Ni filter placed between the sample and detector, and calibrated against a simultaneously collected spectrum of Cu-foil (first inflection point 8980.3 eV). […]

[7] = system: Aβ42; assay: Cerebral Aβ42 by ELISA in 5×FAD mice; assay type: in vivo, mouse; details: 1 mg/kg/day intraperitoneal, 30 days
Excerpt: as §1, §2

[8] = system: 5×FAD mice; assay: Morris water maze test in 5×FAD mice; assay type: in vivo, mouse
Description: Three hours after the final Morris water maze test, to confirm the performance of long-term memory retention, the probe trials, where the escape platform was removed, was carried out, and the mice located its previous position in the water for 60 seconds.

[9] = system: amyloid plaques; assay: Histopathological evaluation of amyloid deposition load in 5×FAD mice; assay type: in vivo, mouse; details: 1 mg/kg/day intraperitoneal, 30 days
Excerpt: as §1

[10] = biological target: T3, Aβ40/Aβ42 aggregates (Homo sapiens, UniProt P05067); assay: Breakdown of preformed Aβ aggregation (gel electrophoresis/Western blot, TEM); assay type: biochemical; details: regardless of presence or absence of metals
T3 construct: Aβ40 and Aβ42 were purchased from AnaSpec (Fremont, Calif., USA); purchased AnaSpec
Description: as §3, §4
(§5) Each sample (10 μL) was separated on a 10-20% Tris-tricine gel (Invitrogen, Grand island, NY, USA), and the protein samples obtained therefrom were transferred onto a nitrocellulose membrane which was blocked with bovine serum albumin (BSA, 3% w/v, Sigma-Aldrich, St. Louis, Mo., USA) in Tris-buffered saline containing 0.1% Tween-20 (TBS-T; 1.00 mM Tris base, pH 8.0, 1.50 mM NaCl) at room temperature for 2 hours.
(§6) Afterwards, the membranes were incubated with a primary antibody (6E10, Covance, Princeton, N.J., USA; 1:2000) in a solution of 2% w/v BSA (in TBS-T) overnight at 4° C. After washing with TBS-T (three times, each for 10 minutes), the horseradish peroxidase-conjugated goat antimouse secondary antibody (1:5000; Cayman Chemical Company, Ann Arbor, Mich., USA) in 2% w/v BSA (in TBS-T) was added for 1 hour at room temperature. […]

[11] = system: Aβ40/Aβ42 aggregates; assay: as above; assay type: biochemical; details: Aβ preincubated 24 hours at 37° C., then DMPD 50 μM
Description: as §3, §4, §5, §6

[12] = system: SK-N-BE(2)-M17 (M17) cell line; assay: Cell viability (MTT) of Aβ40- or metal-Aβ40-treated M17 cells; assay type: cell-based, human; details: Aβ:metal:ligand 10:10:20 μM, 24 hours, relative to the untreated cells
Description: The human neuroblastoma, i.e., SK-N-BE(2)-M17 (M17) cell line, was purchased from the American Type Culture Collection (ATCC, Manassas, Va., USA).
The cell line was maintained in media containing Minimum Essential Media (MEM; GIBCO, Life Technologies, Grand Island, N.Y., USA) and Ham's F12K Kaighn's Modification Media (F12K; GIBCO) at a ratio of 1:1, 10% (v/v) fetal bovine serum (FBS; Atlanta Biologicals, Flowery Branch, Ga., USA), 100 U/mL penicillin (GIBCO), and […] streptomycin (GIBCO). The cells were grown and maintained at a temperature of 37° C. in a humidified atmosphere with 5% CO2.
After completing the incubation at a temperature of 37° C. for 24 hours, 25 μL of [3-(4,5-dimethylthiazol-2-yl)-2,5-diphenyltetrazolium bromide; 5 mg/mL in phosphate buffered saline (PBS), pH7.4, GIBCO] (MTT) was added to each well, and then, the plates were incubated at a temperature of 37° C. for 4 hours.
Formazan produced by the cells was dissolved in a solution containing N,N-dimethylformamide (DMF, 50% v/v aq, pH 4.5) and sodium dodecyl sulfate (SDS, 20% w/v) overnight at room temperature. Subsequently, absorbance at 600 nm was measured on a microplate reader.

[13] = sequential binding model, three sites, 25° C., pH 7.4
[14] = probe trial 60 seconds, three hours after final test, vs vehicle-treated 5×FAD mice

T1 sequence (P05067 672-711 limits assumed): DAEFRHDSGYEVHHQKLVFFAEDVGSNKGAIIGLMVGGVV
T3 sequence (P05067 672-713): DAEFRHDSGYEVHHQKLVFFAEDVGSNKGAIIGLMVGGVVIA
T2 sequence (P05067 672-713 limits assumed): as the sequence (P05067 672-713) above

## O=C1C=CC(=O)C=C1 [BQ, benzoquinone]
[1]; identical conditions as DMPD
  binding to Aβ40 (MS): binds to Aβ40
[1]; ligand 50 μM, Aβ40 25 μM, 24 hours
  mass added to Aβ40 on ligand treatment (mass shift): 104.1±0.1 Da

## CN(C)c1ccc(N)cc1 [DMPD, N,N-dimethyl-p-phenylenediamine]
[2]; calculated, ΔG=ΔH−TΔS
  TΔS1: 28.5 ± 0.84 kJ/mol
  TΔS2: 31.3 ± 0.37 kJ/mol
  TΔS3: -8.90 ± 0.65 kJ/mol
[2]; calculated, ΔG=−RT ln(Ka)
  ΔG1: -31.1 ± 0.77 kJ/mol
  ΔG2: -26.5 ± 0.16 kJ/mol
[2]; sequential binding model, site 1
  ΔH1: -2.63 ± 0.35 kJ/mol
[2]; sequential binding model, site 2
  ΔH2: 4.79 ± 3.35 kJ/mol
[2]; sequential binding model, site 3
  ΔH3: -35.0 ± 6.37 kJ/mol
[2]; [13]
  Ka1: 2.85 ± 0.88 × 10^5 M^−1
  Ka2: 4.34 ± 2.88 × 10^4 M^−1
  Ka3: 3.73 ± 2.22 × 10^4 M^−1
[3]
  gross appearance or body weight versus vehicle-treated mice: no significant difference
[4]
  reduction of FA-soluble Aβ40: ca. 50%
  reduction of SDS-soluble Aβ40: ca. 68%
[4]; vs vehicle-treated
  decrease of total level of Aβ40 (PBS-, SDS- and FA-soluble): ca. 65%
[5]; DMPD 50 μM, Aβ 25 μM, with or without CuCl2/ZnCl2 25 μM, 37° C., 24 hours, aerobic
  effect on formation of metal-free or metal-induced Aβ aggregates: inhibited the formation of Aβ aggregates
[5]; anaerobic condition
  modulation of Aβ aggregation under anaerobic condition: not observed
[6]
  effect on Cu(II) in Cu(II)-loaded Aβ42 fibrils: complete reduction of Cu(II)
[7]
  reduction of FA-soluble Aβ42: ~32%
  reduction of SDS-soluble Aβ42: ~67%
[7]; vs vehicle-treated
  decrease of total level of Aβ42 (PBS-, SDS- and FA-soluble): ~47%
[8]; final five days of DMPD treatment, hidden platform
  spatial learning and memory capability: prominently improved
[8]; [14]
  time in the target quadrant (NW) in probe trial: significantly more time
  time to reach the platform area in probe trial: distinguishably less time
[1]; IM-MS, 4+ charge state
  ion mobility arrival time of Aβ40 complex versus apo state: significantly decreased
[9]
  reduction of load of APP/Aβ-immunoreactive 4G8-stained amyloid plaques: ca. 23%
  reduction of load of Congo red-stained amyloid plaques: ~20%
[10]
  reactivity toward Aβ42 aggregates: less reactivity toward Aβ42 aggregates
[11]
  transformation of preformed metal-free and metal-Aβ40/Aβ42 aggregates: significant effects on the transformation; also recorded: modified the formed Aβ aggregates to relatively smaller and less structured Aβ aggregates
[12]
  increase of viability: 10-20%

Reference: patent publication US20160243059A1 (UNIST Academy-Industry Research Corporation, priority 2015, published 2016)
